Data taken from ChEMBL document CHEMBL3600338, “NMR-based conformational analysis of 2',6-disubstituted uridines and antiviral evaluation of new phosphoramidate prodrugs” (Bioorg Med Chem, 2015).
The source made the active and inactive calls.

Columns and labels:
[1] = test system: Enterovirus A71; assay: Antiviral activity against Enterovirus 71 infected in human HeLa cells assessed as reduction of viral replication; type: functional, organism-based
[2] = test system: Vero; assay: Antiviral activity against Coxsackievirus B4 E2 infected in African green monkey Vero cells assessed as reduction of viral replication; type: functional, cell-based; conditions: Coxsackievirus B4 (strain E2)
[3] = test system: rhinovirus B14; assay: Antiviral activity against Rhinovirus 14 infected in human HeLa cells assessed as reduction of viral replication; type: functional, organism-based
[4] = test system: Vero; assay: Antiviral activity against Coxsackievirus B3 Nancy infected in African green monkey Vero cells assessed as reduction of viral replication; type: functional, cell-based; conditions: Coxsackievirus B3 (strain Nancy)
[5] = test system: Poliovirus 1; assay: Antiviral activity against Poliovirus 1 Sabin infected in African green monkey BGM cells assessed as reduction of viral replication; type: functional, organism-based
[6] = test system: Chikungunya virus; assay: Antiviral activity against Chikungunya virus assessed as reduction of viral replication; type: functional
[7] = test system: Hepatitis C virus; assay: Antiviral activity against Hepatitis C virus genotype 1b Con1 in HuH 5-2 replicon system assessed as reduction of viral replication; type: functional; conditions: Hepacivirus hominis

Measured: Activity

CC(C)OC(=O)[C@H](C)NP(=O)(OC[C@H]1OC(n2c(N=[N+]=[N-])cc(=O)[nH]c2=O)[C@H](O)[C@@H]1O)Oc1ccccc1 (some centres not stated)
inactive: [1] | [2] | [3] | [4] | [5] | [6] | [7]

CC(C)OC(=O)[C@H](C)NP(=O)(OC[C@H]1OC(n2c(C#N)cc(=O)[nH]c2=O)[C@H](O)[C@@H]1O)Oc1ccccc1 (some centres not stated)
inactive: [1] | [2] | [3] | [4] | [5] | [6] | [7]

Cc1cc(=O)[nH]c(=O)n1C1O[C@H](COP(=O)(N[C@@H](C)C(=O)OC(C)C)Oc2ccccc2)[C@@H](O)[C@H]1O (some centres not stated)
inactive: [1] | [2] | [3] | [4] | [5] | [6] | [7]

CC(C)OC(=O)[C@H](C)NP(=O)(OC[C@H]1OC(n2c(I)cc(=O)[nH]c2=O)[C@H](O)[C@@H]1O)Oc1ccccc1 (some centres not stated)
inactive: [1] | [2] | [3] | [4] | [5] | [6] | [7]

Cc1cc(=O)[nH]c(=O)n1C1O[C@H](COP(=O)(N[C@@H](C)C(=O)OC(C)C)Oc2ccccc2)[C@@H](O)[C@@]1(C)O (some centres not stated)
inactive: [1] | [2] | [3] | [4] | [5] | [6] | [7]

CC(C)OC(=O)[C@H](C)NP(=O)(OC[C@H]1OC(n2c(C#N)cc(=O)[nH]c2=O)[C@](C)(O)[C@@H]1O)Oc1ccccc1 (some centres not stated)
inactive: [1] | [2] | [3] | [4] | [5] | [6] | [7]
